This passage reports Activity results from ChEMBL document CHEMBL1156510, “Epidermal growth factor receptor and notch pathways participate in the tumor suppressor function of gamma-secretase” (2007).

Active and inactive are the calls of the source. The rule behind the calls is not given here. Some results are limits rather than exact numbers.

Experiment [1] deals with Mus musculus. Put plainly: Reduction of amyloid beta in Tg2576 mouse plasma at 2.5 mg/kg/day. It counts as functional. On the set-up: scale not given: the % may be the effect or the level left.
Experiment [2] relates to Mus musculus. Put plainly: Reduction of amyloid beta in Tg2576 mouse brain at 2.5 mg/kg/day. On the set-up: scale not given: the % may be the effect or the level left. It counts as functional.
Experiment [3] concerns Mus musculus. Put plainly: Induction of hyperproliferative skin lesions assessed as epidermal hyperplasia in Nct+/- C57BL/6;129Svi mouse at 2.5 mg/kg/day. It counts as functional, organism-based.
Experiment [4] relates to Fibroblast. Put plainly: Inhibition of Nct-/- C57BL/6;129Svi mouse fibroblast cell proliferation. It counts as functional, cell-based.
In experiment [5] the test system is Fibroblast. Put plainly: Inhibition of EGF induced Nct-/- C57BL/6;129Svi mouse fibroblast cell proliferation at 5 uM. The class given is functional, cell-based.
Experiment [6] relates to Fibroblast. Put plainly: Inhibition of EGF induced Nct+/+ C57BL/6129Svi mouse fibroblast cell proliferation at 5 uM. To be noted: C57BL/6. The class given is functional, cell-based.

Consider `C[C@H](NC(=O)[C@@H](O)c1cc(F)cc(F)c1)C(=O)N[C@@H]1C(=O)N(C)c2ccccc2-c2ccccc21`, for which the Activity in the experiment with Mus musculus [1] is given as greater than 90%; in the experiment on Mus musculus [2], greater than 70%. Besides, the result in the experiment on Mus musculus [3] was Active.

As for `COc1cc2ncnc(Nc3cccc(Cl)c3)c2cc1OC`, the result in the experiment with Fibroblast [4] and in the experiment with Fibroblast [5] was Active. The result in the experiment with Fibroblast [6] was inactive.
